Patent US6534447B1, “Herbicidal pyridine compounds” (BASF Aktiengesellschaft, priority 1999, dated 2003)

Assays:
Type in all cases: in vivo
[1] = system: Echinochloa grus galli (ECHCG, barnyard grass); experiment: Pre-emergence herbicidal evaluation; conditions: 3 weeks after treatment
Source text: (§1) The pre-emergence herbicidal activity of the compounds of the present invention is exemplified by the following test in which the seeds of a variety of monocotyledonous and dicotyledonous plants are seperately mixed with potting soil and planted on top of approximately one inch of soil in separate post. After planting, the pots are sprayed with the selected aqueous acetone solution. containing test compound in sufficient quantity to provide the equivalent of about 0.025 to 0.4 kg per hectare of test compound per pot. The treated pots are then placed on greenhouse benches, watered and cared for in accordance with conventional greenhouse procedures. From 3 weeks after treatment, the tests are terminated and each pot is examined and rated according to the rating system set forth below. [table] [table]

[2] = system: Alopecurus myosuroides (ALOMY, black grass); experiment: Pre-emergence herbicidal evaluation; conditions: 3 weeks after treatment
Source text: as §1

[3] = system: Galium aparine (GALAP, cleaver); experiment: Pre-emergence herbicidal evaluation; conditions: 3 weeks after treatment
Source text: as §1

[4] = system: Stellaria media (STEME, chickweed); experiment: Pre-emergence herbicidal evaluation; conditions: 3 weeks after treatment
Source text: as §1

[5] = system: Abutilon theophrasti (ABUTH, velvetleaf); experiment: Pre-emergence herbicidal evaluation; conditions: 3 weeks after treatment
Source text: as §1

[6] = system: Ipomoea hederacea (IPOHE, morning glory); experiment: Pre-emergence herbicidal evaluation; conditions: 3 weeks after treatment
Source text: as §1

[7] = system: Matricaria inodora (MATIN, mayweed); experiment: Pre-emergence herbicidal evaluation; conditions: 3 weeks after treatment
Source text: as §1

[8] = system: Setaria viridis (SETVI, green foxtail); experiment: Pre-emergence herbicidal evaluation; conditions: 3 weeks after treatment
Source text: as §1

[9] = system: Echinochloa grus galli (ECHCG, barnyard grass); experiment: Post-emergence herbicidal evaluation; conditions: 3 weeks after treatment
Experimental: (§2) These acetone solutions are diluted with water and the resulting formulations applied at dosage levels equivalent of about 0.025 to 0.4 kg per hectare of test compound per pot. After spraying the plants are placed on greenhouse benches and are cared for in the usual manner, commensurate with conventional greenhouse practices. From 3 weeks after treatment, the seedling plants are examined and rated according to the rating system provided above. A rating 0 indicates growth as untreated control, a rating 9 indicates death.

[10] = system: Alopecurus myosuroides (ALOMY, black grass); experiment: Post-emergence herbicidal evaluation; conditions: 3 weeks after treatment
Experimental: as §2

[11] = system: Galium aparine (GALAP, cleaver); experiment: Post-emergence herbicidal evaluation; conditions: 3 weeks after treatment
Experimental: as §2

[12] = system: Stellaria media (STEME, chickweed); experiment: Post-emergence herbicidal evaluation; conditions: 3 weeks after treatment
Experimental: as §2

[13] = system: Abutilon theophrasti (ABUTH, velvetleaf); experiment: Post-emergence herbicidal evaluation; conditions: 3 weeks after treatment
Experimental: as §2

[14] = system: Ipomoea hederacea (IPOHE, morning glory); experiment: Post-emergence herbicidal evaluation; conditions: 3 weeks after treatment
Experimental: as §2

[15] = system: Matricaria inodora (MATIN, mayweed); experiment: Post-emergence herbicidal evaluation; conditions: 3 weeks after treatment
Experimental: as §2

[16] = system: Dolium multiflorum (LOLMU, ryegrass); experiment: Post-emergence herbicidal evaluation; conditions: rate 0.100 kg/ha, 3 weeks after treatment
Experimental: as §2

[17] = system: Setaria viridis (SETVI, green foxtail); experiment: Post-emergence herbicidal evaluation; conditions: 3 weeks after treatment
Experimental: as §2

[18] = system: Triticum aestivum (TRZAW, winter wheat); experiment: Pre-emergence herbicidal evaluation (crop); conditions: 3 weeks after treatment
Source text: as §1

Zea mays (ZEAMX, maize) = experiment: Pre-emergence herbicidal evaluation (crop); conditions: 3 weeks after treatment
Source text: as §1

[19] = system: Glycine max (GLXMA, soyabeans); experiment: Pre-emergence herbicidal evaluation (crop); conditions: 3 weeks after treatment
Source text: as §1

Cc1cc(OCCC(Cl)SC(F)(F)F)nc(Oc2cc(C(F)(F)F)nn2C)c1 (stereo not shown) [Example 3, 2-(1-Methyl-3-trifluoromethylpyrazol-5-yloxy)-4-methyl-6-(3-chloro-3-trifluoromethylthiopropyloxy)pyridine]
8 (8 - Approaching complete kill): ECHCG rating ([1]; rate 0.400 kg/ha) | ALOMY rating ([2]; rate 0.100 kg/ha) | ALOMY rating ([2]; rate 0.400 kg/ha) | MATIN rating ([7]; rate 0.025 kg/ha) | SETVI rating ([8]; rate 0.025 kg/ha) | ECHCG rating ([9]; rate 0.100 kg/ha) | GALAP rating ([11]; rate 0.025 kg/ha) | GALAP rating ([11]; rate 0.100 kg/ha) | GALAP rating ([11]; rate 0.400 kg/ha) | LOLMU rating [16] | SETVI rating ([17]; rate 0.025 kg/ha)
7 (7 - Good herbicidal effect): GALAP rating ([3]; rate 0.100 kg/ha) | GALAP rating ([3]; rate 0.400 kg/ha) | ABUTH rating ([5]; rate 0.400 kg/ha) | IPOHE rating ([6]; rate 0.025 kg/ha) | ALOMY rating ([10]; rate 0.100 kg/ha) | ALOMY rating ([10]; rate 0.400 kg/ha) | ABUTH rating ([13]; rate 0.100 kg/ha) | ABUTH rating ([13]; rate 0.400 kg/ha) | MATIN rating ([15]; rate 0.400 kg/ha)
5 (5 - Definite injury): ALOMY rating ([2]; rate 0.025 kg/ha) | ABUTH rating ([5]; rate 0.025 kg/ha) | ABUTH rating ([5]; rate 0.100 kg/ha) | ALOMY rating ([10]; rate 0.025 kg/ha) | STEME rating ([12]; rate 0.100 kg/ha) | ABUTH rating ([13]; rate 0.025 kg/ha) | MATIN rating ([15]; rate 0.025 kg/ha)
4 (4 - Injury): ECHCG rating ([1]; rate 0.025 kg/ha) | STEME rating ([12]; rate 0.025 kg/ha)
9 (9 - Complete kill): STEME rating ([4]; rate 0.025 kg/ha) | STEME rating ([4]; rate 0.100 kg/ha) | STEME rating ([4]; rate 0.400 kg/ha) | IPOHE rating ([6]; rate 0.100 kg/ha) | IPOHE rating ([6]; rate 0.400 kg/ha) | MATIN rating ([7]; rate 0.100 kg/ha) | MATIN rating ([7]; rate 0.400 kg/ha) | SETVI rating ([8]; rate 0.100 kg/ha) | SETVI rating ([8]; rate 0.400 kg/ha) | ECHCG rating ([9]; rate 0.400 kg/ha) | IPOHE rating ([14]; rate 0.025 kg/ha) | IPOHE rating ([14]; rate 0.100 kg/ha) | IPOHE rating ([14]; rate 0.400 kg/ha) | SETVI rating ([17]; rate 0.100 kg/ha) | SETVI rating ([17]; rate 0.400 kg/ha)
1 (1 - Trace effect): TRZAW rating ([18]; rate 0.025 kg/ha) | GLXMA rating ([19]; rate 0.025 kg/ha) | GLXMA rating ([19]; rate 0.100 kg/ha)
6 (6 - Herbicidal effect): ECHCG rating ([1]; rate 0.100 kg/ha) | ECHCG rating ([9]; rate 0.025 kg/ha) | STEME rating ([12]; rate 0.400 kg/ha) | MATIN rating ([15]; rate 0.100 kg/ha)
2 (2 - Slight effect): GALAP rating ([3]; rate 0.025 kg/ha) | TRZAW rating ([18]; rate 0.100 kg/ha) | ZEAMX rating (Zea mays (ZEAMX, maize); rate 0.025 kg/ha) | ZEAMX rating (Zea mays (ZEAMX, maize); rate 0.100 kg/ha) | GLXMA rating ([19]; rate 0.400 kg/ha)
3 (3 - Moderate effect): TRZAW rating ([18]; rate 0.400 kg/ha) | ZEAMX rating (Zea mays (ZEAMX, maize); rate 0.400 kg/ha)
